Patent US10259815B2, “Gabaergic ligands and their uses” (UWM Research Foundation, Inc., priority 2015, dated 2019)
“Also recorded” adds a separate entry of the source.

Experiments:
[1] = test system: Mice; assay: scMET test for anticonvulsant activity, mice; type: in vivo
Procedure: Mice were then dosed i.p. with 5, 10, 25, or 50 mg/kg of KRM-II-81.

[2] = test system: Male NIH Swiss mice; assay: Marble burying assay (anxiolytic); type: in vivo
Procedure: Male NIH Swiss mice (n=10) were dosed i.p. with vehicle (1% carboxymethyl cellulose) or one of the test compounds (10 or 30 mg/kg) 30 minutes prior to being tested in the marble burying assay.
The marble burying assay is designed to measure the anxiolytic-effect of a compound. When mice are nervous, they will bury marbles. As there becomes a decrease in amount of marbles buried, the better anxiolytic effect of a compound.
The marble burying assay is used to determine the anxiolytic activity of a given compound. Mice are placed in a tub containing 20 marbles placed over a bed of sawdust. Defensive burying (Broekkamp 1986) is the natural reaction for the mice. When given an anxiolytic, such as diazepam, the mice are less likely to defensively bury the marbles.
Experiments were carried out by the methods described in Li et al. (Life Sciences 2006, 78, 1933-1939). Separate groups of mice were used in these experiments and were conducted in a dimly lit testing room. After 60 min acclimation to the experimental room, mice were placed in a 17×28×12 cm high plastic tub with […] sawdust shavings (Harlan Sani-Chips, Harlan-Teklad, Indianapolis, Ind., USA) on the floor, which was covered with 20 blue marbles (1.5 cm diameter) placed in the center. […] The number of marbles buried (⅔ covered with sawdust) was counted and submitted to inter-observer reliability assessment.

[3] = test system: Male Sprague-Dawley rats; assay: von Frey filament test in spinal nerve ligated (SNL) rats; type: in vivo
Procedure: FIG. 11 is a graph of time versus withdrawal threshold for KRM-II-81, Gabapentin, and vehicle, showing the effect of KRM-II-81 on antihyperalgesia in the von Frey filament assay. Male Sprague-Dawley rats (n=5) were dosed i.p. either vehicle, KRM-II-81 (30 mg/kg), or gabapentin (50 mg/kg) and tested in the von Frey filament assay after undergoing SNL 90 days prior. Results were analyzed using ANOVA (Dunnett's test: *P<0.05).
The von Frey filament test is used to test for antihyperalgesia, or an increased sensitivity to pain. […] The von Frey filaments are used to apply pressure to the forelimbs of test subjects at set amounts. When pressure becomes too great, the forelimb is withdrawn and the amount of force applied recorded. The spinal nerve ligation induced hyperalgesia, reducing the amount of force a limb can take before being withdrawn.
Test compounds were given to test the effectiveness of combating the hyperalgesic effect of SNL. Male Sprague-Dawley rats went through SNL at least 90 days prior to the von Frey testing. Rats were first tested without given an injection to determine a baseline. Following baseline establishment, rats (n=5 for all groups) were dosed i.p. with vehicle (1% carboxymethyl cellulose), KRM-II-81 (30 mg/kg), or gabapentin (50 mg/kg). Subjects were then tested every hour for four hours to determine the antihyperalgesic effect of the test compounds. For testing, pressure using von Frey filaments was applied to the forelimb of the rat. Pressure was increased until the limb was withdrawn, and the amount of pressure was recorded.

[4] = target: CYP2D6 (Homo sapiens, UniProt P10635); assay: CYP substrate assessment, CYP2D6
[5] = test system: Male CD-1 mice; assay: Maximal electroshock (MES)-induced convulsion protection; type: in vivo; conditions: i.p. 30 minutes prior to test
Procedure: Male CD-1 mice (n=10) were dosed i.p. 30 minutes prior to being tested. Results were analyzed using ANOVA (Dunnett's test versus vehicle: *P<0.05).
The maximal electroshock (MES) assay is designed to determine how well a test compound can prevent seizures induced by applying a voltage stimuli to a mouse.
Mice were subjected to electrical induced tonic seizures and examined for anticonvulsant effects 30 minutes after treatment. Mice were then given a 7 mA electroshock using a Wahlquist Model H for 0.2 seconds and observed for the presence or absence of seizure activity. Each mouse is tested only once and euthanized immediately following the test.

[6] = test system: Male NIH Swiss mice; assay: Forced swim test; type: in vivo; conditions: 10 and 30 mg/kg i.p.
Procedure: FIG. 16 is a graph of immobility illustrating the antidepressant effects of KRM-II-81 assessed in the forced swim test. Male NIH Swiss mice (n=7-8) were dosed i.p. with vehicle (1% HEC, 0.25% Tween 80, 0.05% antifoam), KRM-II-81 (3, 10, or 30 mg/kg), or imipramine (15 mg/kg) and assessed in the forced swim test. Results were analyzed using ANOVA (Dunnett's test *P<0.05).
The forced swim test is used as a primary screen for the antidepressant nature of a test compound. Mice are placed in a cylinder filled with a small amount of water. Mice that are more mobile after a dosing of a compound are determined to be less depressed.
The experiment was carried out as described by Porsolt et al. (Arch. Int. Pharmacodyn. Ther. 1977, 229, 327-366). Male NIH Swiss mice (n=7-8) were dosed i.p. with vehicle (1% HEC, 0.25% Tween 80, 0.05% antifoam), KRM-II-81 (3, 10, or 30 mg/kg), or imipramine (15 mg/kg) and assessed in the forced swim test. Mice were placed individually in clear plastic cylinders (10 cm in diameter×25 cm in height) filled to 6 cm with 22-25° C. water for 6 minutes. The duration of immobility was recorded during the last 4 minutes of a 6-minute trial. A mouse was regarded as immobile when floating motionless or making only those movements necessary to keep its head above the water.

[7] = Pharmacokinetics and brain concentration after 10 mg/kg P.O. dose, rats; type: in vivo
Procedure: In a 10 mg/kg oral dose in rats, a concentration of 644 ng/g of KRM-II-81 was found unbound in the brain, indicating a great pharmacokinetic-profile.
Although these are different species, the numbers can still be compared.

[8] = target: CYP2C9 (Homo sapiens, UniProt P11712); assay: CYP substrate assessment, CYP2C9
[9] = test system: Male Sprague-Dawley rats; assay: PTZ-induced seizure threshold; type: in vivo
Procedure: Results were analyzed using ANOVA (Dunnett's test: *P<0.05).
After a pretreatment of test compound, MET was intravenously administered to a test subject until a convulsions were observed.
Each animal was used only once and was euthanized post testing. Results were analyzed using ANOVA (Dunnett's test: *P<0.05).

CYP2D6, sequence (P10635 whole entry): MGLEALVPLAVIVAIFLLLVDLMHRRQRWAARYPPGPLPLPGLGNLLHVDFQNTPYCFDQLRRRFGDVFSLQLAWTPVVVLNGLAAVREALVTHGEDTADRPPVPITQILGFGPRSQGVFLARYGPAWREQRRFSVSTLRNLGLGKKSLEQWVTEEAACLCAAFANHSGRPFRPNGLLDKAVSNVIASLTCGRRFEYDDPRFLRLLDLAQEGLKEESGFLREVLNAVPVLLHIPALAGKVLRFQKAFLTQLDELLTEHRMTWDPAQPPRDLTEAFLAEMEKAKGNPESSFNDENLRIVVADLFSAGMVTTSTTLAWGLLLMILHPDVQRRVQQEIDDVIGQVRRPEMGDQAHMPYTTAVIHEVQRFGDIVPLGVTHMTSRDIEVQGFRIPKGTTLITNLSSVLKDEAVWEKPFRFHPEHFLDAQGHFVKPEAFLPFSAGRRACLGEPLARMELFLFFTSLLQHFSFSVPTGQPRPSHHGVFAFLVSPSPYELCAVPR
CYP2C9, sequence (P11712 whole entry): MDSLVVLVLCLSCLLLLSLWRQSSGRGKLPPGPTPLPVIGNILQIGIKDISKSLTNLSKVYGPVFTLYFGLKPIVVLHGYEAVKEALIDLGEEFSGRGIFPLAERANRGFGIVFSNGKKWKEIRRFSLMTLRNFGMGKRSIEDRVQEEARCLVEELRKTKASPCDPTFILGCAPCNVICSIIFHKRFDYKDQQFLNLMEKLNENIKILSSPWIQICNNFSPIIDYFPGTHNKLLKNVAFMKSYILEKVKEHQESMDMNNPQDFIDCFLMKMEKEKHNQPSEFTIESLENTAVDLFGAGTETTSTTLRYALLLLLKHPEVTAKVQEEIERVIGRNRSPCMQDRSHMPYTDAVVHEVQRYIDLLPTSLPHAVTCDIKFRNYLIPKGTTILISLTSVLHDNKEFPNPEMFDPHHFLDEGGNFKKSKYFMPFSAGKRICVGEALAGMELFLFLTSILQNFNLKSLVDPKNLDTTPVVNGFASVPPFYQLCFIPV

## C#Cc1ccc2c(c1)C(c1ccccn1)=NCc1c(-c3cnco3)ncn1-2 [KRM-II-81, 5-(8-Ethynyl-6-(pyridin-2-yl)-4H-benzo[f]imidazo[1,5-a][1,4]diazepin-3-yl)oxazole]
[1]; Dose 5 mg/kg i.p.
  Protected (animals protected/tested): 0/8
[1]; Dose 10 mg/kg i.p.
  Protected (animals protected/tested): 5/8
[1]; Dose 25 mg/kg i.p.
  Protected (animals protected/tested): 7/8
[1]; Dose 50 mg/kg i.p.
  Protected (animals protected/tested): 8/8
[1]; Mus musculus, ip, half hour time point, mice
  ED50: 10.9 mg/kg
[2]; 10 and 30 mg/kg i.p.
  sedation observed in marble burying assay: without observed signs of sedation
[2]; mouse, in vivo
  anxiolytic activity in marble burying assay: better anxiolytic than HZ-166; also recorded: good activity in the marble burying
[3]; KRM-II-81 30 mg/kg at one hour, gabapentin 50 mg/kg
  statistical significance of antihyperalgesic effect: able to reach significance
[3]; KRM-II-81 30 mg/kg, gabapentin 50 mg/kg i.p.
  antihyperalgesic activity, von Frey after SNL: active as antihyperalgesics
[3]; from 1-2 hours, vehicle ˜5 g
  pain threshold (force before removing paw): ~12 g
[4]
  substrate of CYP2D6: not found to be a substrate
[5]
  protection against MES-induced seizures: greater effectiveness than HZ-166; also recorded: fully protected against seizure induction
[6]
  antidepressant effects (immobility): demonstrated antidepressant effects
[7]; Cmax, 10 mg/kg P.O., KRM-II-81 in rats vs HZ-166 in mice
  concentration in the blood relative to HZ-166: ~500 times
[7]; rat, blood, po, 10 mg/kg P.O., rats
  Tmax: 1.3 h
[7]; rat, blood, po, 10 mg/kg P.O., rats, read-out: Cmax (highest concentration found in blood)
  Cmax: 1750 ng/mL
[7]; rat, brain (unbound), 10 mg/kg oral dose, one hour after dose, rats stated for KRM-II-81, read-out: brain unbound concentration ([brain]u)
  concentration at 1 h: 644 ng/g
[7]; rat, 10 mg/kg oral dose, brain, read-out: free fraction
  fraction unbound: 0.18
[8]
  substrate of CYP2C9: not found to be a substrate
[9]; pretreated with 10 mg/kg i.p., PTZ infused i.v.
  dose of MET required for convulsion: 71 mg/kg
[9]; test compound 3 to 60 mg/kg, diazepam 0.1 to 1 mg/kg i.p.
  effect on seizure threshold to PTZ: significantly increased the seizure threshold to PTZ; also recorded: larger maximal effect
